These are literature values, as cited in US20060204588A1, “Formulations of a nanoparticulate finasteride, dutasteride or tamsulosin hydrochloride, and mixtures thereof” (Elan Pharma International Limited, priority 2005, published 2006).

Regarding `CC(C)(C)NC(=O)[C@H]1CC[C@H]2[C@@H]3CC[C@H]4NC(=O)C=C[C@]4(C)[C@H]3CC[C@]12C` [Finasteride, (5alpha,17beta)-N-(1,1-dimethylethyl)-3-oxo-4-azaandrost-1-ene-17-carboxamide], the Solubility in water entry is “practically insoluble”. Besides, the Solubility in alcohol entry (alcohol) is “soluble”. Further, the Solubility in chloroform result (chloroform) was “freely soluble”. Also, the “Solubility in lower alcohol solvents” value (lower alcohol solvents) is “freely soluble”.
With `CCOc1ccccc1OCCNC(C)Cc1ccc(OC)c(S(N)(=O)=O)c1.Cl` (single isomer, unassigned; (-)) [Tamsulosin hydrochloride], the Solubility in water entry was “sparingly soluble”. Where the note is “ethanol”, the “Solubility in ethanol (in words)” value is on record as “slightly soluble”. Moreover, the Solubility in ether entry (ether) was “practically insoluble”. For the same compound, the “Solubility in glacial acetic acid” value (glacial acetic acid) is “slightly soluble”. For the same compound, the “Solubility in methanol (in words)” value (methanol) is “sparingly soluble”.
Take `C[C@]12C=CC(=O)N[C@@H]1CC[C@@H]1[C@@H]2CC[C@]2(C)[C@@H](C(=O)Nc3cc(C(F)(F)F)ccc3C(F)(F)F)CC[C@@H]12` [Dutasteride, (5α, 17β)-(2,5 bis-(trifluoromethyl)phenyl)-3-oxo-4-azaandrost-1-ene-17-carboxamide]: the Solubility in water entry is listed as “insoluble”.
